# Measured values reported in patent US6762029B2, “Methods of identifying agents that modulate P2Y12 receptor activity” (Portola Pharmaceuticals, Inc., priority 1999, dated 2004).
# Assays:
# hP2Y12 [1] = biological target: T1, hP2Y12 (Homo sapiens, UniProt Q9H244); test: Two-electrode voltage-clamp of Xenopus oocytes expressing hP2Y12 with Kir3.1 and 3.4: inhibition of ADP-stimulated potassium currents; type: cell-based
# T1 construct: expressed in transfected cells; host or cells: Xenopus laevis oocytes injected with hP2Y12 cRNA (50 pg) plus Kir3.1 and Kir3.4 cRNAs
# Protocol: (§1) Defolliculated Xenopus laevis oocytes were injected with a positive 500 clone pool (10 ng), rP2Y12 (10 pg), hP2Y12 (50 pg), Kir3.1, Kir3.4, PTX and hm2 (1 ng each) cRNAs as indicated. Three to seven days after injection, two-electrode voltage-clamp recordings were performed using a Geneclamp 500 amplifier (Axon Instruments) and a Maclab A/D converter (Maclab). Membrane potentials were clamped at −70 mV while the recording chamber was perfused at a rate of 2 ml/min with a solution containing (in mM) 70 KCl, 20 NaCl, 3 MgCl2, 5 HEPES, pH 7.4, at room temperature. The KCl was replaced with NaCl to examine responses in zero potassium. Agonists and antagonists (Roche Molecular Biochemistry or Sigma) were diluted in the recording solution. Experiments using C1330-7 included 0.1% dimethylsulfoxide to enhance its solubility in the perfusate.
# FIG. 2(A). […] The dot (.) indicates the start of a 15 sec application of ADP, while bars denote co-application with the antagonist. (B) 2MeSAMP and C1330-7 inhibition curves. Current responses were normalized to that elicited by ADP (500 nM) alone in each oocyte and plotted as the mean+/−s.d. Curves were fitted to the data using the Hill equation (n=5 independent oocytes for each point). (C) Selective ablation of P2Y12 but not m2 muscarinic receptor signaling by the thiol reagent pCMBS. ADP (10 μM), carbachol (1 μM), and pCMBS (1 mM) were applied sequentially to an oocyte expressing both receptors concurrently with Kir3.1 and 3.4. Bars indicate periods of drug application (10 sec).
# m2 muscarinic receptor = biological target: T2, m2 muscarinic receptor (Homo sapiens, UniProt P08172); test: Carbachol-activated Kir3.1/3.4 currents via m2 muscarinic receptor in the same oocytes; type: cell-based; details: 1 mM, carbachol 1 μM, FIG. 2C
# T2 construct: expressed in transfected cells; host or cells: Xenopus laevis oocytes injected with hm2 cRNA (1 ng) together with hP2Y12, Kir3.1 and Kir3.4
# T2 sequence (P08172 1-466): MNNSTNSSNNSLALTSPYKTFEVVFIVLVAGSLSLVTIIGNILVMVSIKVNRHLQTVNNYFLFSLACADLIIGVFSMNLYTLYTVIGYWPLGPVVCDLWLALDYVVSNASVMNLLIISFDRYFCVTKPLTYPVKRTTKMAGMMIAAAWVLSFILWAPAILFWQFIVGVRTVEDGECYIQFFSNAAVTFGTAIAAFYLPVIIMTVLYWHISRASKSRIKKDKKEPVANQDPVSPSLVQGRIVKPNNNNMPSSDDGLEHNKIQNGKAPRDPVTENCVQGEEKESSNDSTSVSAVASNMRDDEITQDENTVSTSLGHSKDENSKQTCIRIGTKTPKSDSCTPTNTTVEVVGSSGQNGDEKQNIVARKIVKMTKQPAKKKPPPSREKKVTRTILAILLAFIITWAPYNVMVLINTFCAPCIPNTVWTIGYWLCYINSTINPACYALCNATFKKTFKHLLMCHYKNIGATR
# Protocol: as §1
# FIG. 2(A). […] The dot (.) indicates the start of a 15 sec application of ADP, while bars denote co-application with the antagonist. (B) 2MeSAMP and C1330-7 inhibition curves. Current responses were normalized to that elicited by ADP (500 nM) alone in each oocyte and plotted as the mean+/−s.d. Curves were fitted to the data using the Hill equation (n=5 independent oocytes for each point). (C) Selective ablation of P2Y12 but not m2 muscarinic receptor signaling by the thiol reagent pCMBS. […]
# rat P2Y12 = biological target: T3, rat P2Y12 (Rattus norvegicus, UniProt Q9EPX4); test: Two-electrode voltage-clamp of Xenopus oocytes expressing rat P2Y12: inhibition of ADP-evoked signal; type: cell-based
# T3 construct: expressed in transfected cells; host or cells: Xenopus laevis oocytes injected with rP2Y12 cRNA (10 pg) plus Kir3.1 and Kir3.4 cRNAs
# Protocol: as §1
# hP2Y12 [2] = biological target: T1, hP2Y12; test: [3H]2MeSADP binding to membranes of COS7 cells transiently transfected with hP2Y12 (rapid filtration); details: 4 C, 30 minutes
# Protocol: hP2Y12 cDNA was transiently transfected into cos7 cells and crude membranes were prepared using standard procedures. Binding of 1 nM [^3H]2MeSADP at various membrane protein concentrations and in the absence and presence of various inhibitors was determined at 4 C. for 30 minutes in a rapid filtration assay (triplicates). Non-specific binding was determined with 10 uM 2MeSADP and subtracted from all data. Each experiment included membranes from untransfected cells.
# hP2Y12 [3] = biological target: T1, hP2Y12; test: Forskolin-stimulated cAMP accumulation in CHO cells stably expressing hP2Y12; type: cell-based
# Protocol: Chinese Hamster Ovary (CHO) cells or rat 2-9 fibroblasts, which are null for Gi-linked purinergic receptors, were transfected with hP2Y12 or rP2Y12 cDNA's, respectively using FuGene reagent (Roche), and cells were cultured in the presence of G418 for 2 weeks to select for stable transfectants. For cAMP assays, stably transfected CHO cells expressing the hP2Y12 plasmid were plated in 12-well dishes. Forty-eight hours later media was removed from the cells and replaced with serum-free media containing IBMX (0.25 mM final) and incubated at 37° C. for 5 minutes. Cells were incubated for an additional 5 min with 10 μM forskolin, as well as the indicated agonists and antagonists. Pertussis toxin treatment (30 ng/ml) occurred for 20 hrs at 37° C. prior to assay. Cyclic AMP levels were determined from aliquots of cell extracts in a radioimmunoassay (Amersham Biotrak cAMP ^125I assay system).
# FIG. 3(A). Receptor coupling to adenylyl cyclase was assessed as ADP-mediated (0.1-10 μM) inhibition of forskolin-stimulated (10 μM) cAMP accumulation (CON=control, normalized to 100%). (B) The effect of the specific antagonists 2MeSAMP (2-MES)(50 μM) and C1330-7 (50 μM) on repression of ADP-mediated (1 μM) forskolin-stimulated cAMP levels. (C) Effect of pertussis toxin (PTX) pretreatment on the inhibition by 10 μM ADP of forskolin-stimulated cAMP levels. Results are the mean+/−s.d. of three representative experiments performed in triplicate.
# P2Y12 receptor [4] = biological target: T4, P2Y12 receptor (UniProt Q9H244); test: Two-electrode voltage-clamp of Xenopus oocytes expressing P2Y12 with Kir3.1 and 3.4: agonist-stimulated potassium currents; type: cell-based; details: FIG. 1C; for EC50: Xenopus oocytes with Kir3.1 and 3.4, currents normalized to 10 μM ADP, Hill fit
# T4 construct: EC50, potassium currents in oocytes; other: Xenopus oocytes with Kir3.1 and 3.4; currents normalized to 10 μM ADP; Hill; potency compared to ADP
# Protocol: as §1
# (§2) FIG. 1(A). Activation of potassium-dependent currents in Xenopus oocytes expressing P2Y12 with Kir3.1 and 3.4. ADP (10 μM) was applied (short bars) in the presence or absence (long bar) of extracellular potassium (70 mM) while recording membrane currents in the whole-cell voltage clamp configuration. […] (B) ADP-selective stimulation of potassium channel-dependent currents by P2Y12 occurs via a pertussis toxin-sensitive pathway. UDP, adenosine (A), ATP-α-S or ADP (10 μM each) were sequentially applied to oocytes expressing the rat or human receptor with or without Kir3.1, 3.4 and pertussis toxin (PTX). (C) The agonist profile of P2Y12 recapitulates that observed for the Gi-coupled platelet ADP receptor. Concentration-response curves for ADP and 2MeSADP are presented. Membrane currents were normalized in each oocyte to a response obtained with 10 μM ADP. Each point represents the mean values (+/−s.d.) from five independent oocytes. The Hill equation was used to fit the response data.
# P2Y12 receptor [5] = test: as above; type: cell-based; details: 10 μM each, FIG. 1B
# Protocol: as §1, §2
# T1 sequence (Q9H244 whole entry): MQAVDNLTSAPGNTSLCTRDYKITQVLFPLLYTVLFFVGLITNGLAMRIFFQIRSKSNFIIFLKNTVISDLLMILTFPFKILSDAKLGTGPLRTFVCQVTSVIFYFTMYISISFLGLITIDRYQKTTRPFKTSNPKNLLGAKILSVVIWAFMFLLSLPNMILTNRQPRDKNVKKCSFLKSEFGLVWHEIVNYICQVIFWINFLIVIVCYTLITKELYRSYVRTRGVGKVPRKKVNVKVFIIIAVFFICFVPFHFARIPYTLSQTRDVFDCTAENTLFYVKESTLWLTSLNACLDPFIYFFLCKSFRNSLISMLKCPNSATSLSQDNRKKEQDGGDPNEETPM
# T3 sequence (Q9EPX4 whole entry): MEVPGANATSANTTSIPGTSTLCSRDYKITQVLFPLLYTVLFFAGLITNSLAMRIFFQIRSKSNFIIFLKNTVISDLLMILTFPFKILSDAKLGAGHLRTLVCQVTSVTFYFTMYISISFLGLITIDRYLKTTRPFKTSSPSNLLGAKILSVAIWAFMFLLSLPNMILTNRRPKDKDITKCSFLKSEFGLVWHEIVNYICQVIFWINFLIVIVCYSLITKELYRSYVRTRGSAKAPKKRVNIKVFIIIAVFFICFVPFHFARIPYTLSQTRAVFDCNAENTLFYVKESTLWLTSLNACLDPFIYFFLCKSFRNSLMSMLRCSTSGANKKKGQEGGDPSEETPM
compound,measurement,setting,value
"O=S(=O)(O)c1cc[c]([Hg][Cl])cc1 [pCMBS, p-chloromercuriphenylsulfonic acid]",effect on ADP-evoked current responses,"hP2Y12 [1]; brief exposure, 1 mM, ADP 10 μM, FIG. 2C",eliminated
same,effect on activation of the signaling pathway by m2 muscarinic receptors,m2 muscarinic receptor,unaffected
Nc1ncnc2c1ncn2[C@@H]1O[C@H](COP(=O)(O)O)[C@@H](OP(=O)(O)O)[C@H]1O [A3P5P],inhibitory effect on the signal evoked by ADP,"hP2Y12 [1]; human P2Y12, FIG. 2A",no inhibitory effect
same,inhibitory effect on the signal evoked by ADP,rat P2Y12,no inhibitory effect
same,competition of 1 nM [3H]2MeSADP binding to membranes from transfected cells,hP2Y12 [2]; 300 μM,only little effect
CSc1nc(N)c2ncn([C@@H]3O[C@H](COP(=O)(O)O)[C@@H](O)[C@H]3O)c2n1 [2MeSAMP],block of ADP (1 μM) responses,"hP2Y12 [1]; antagonist 10 μM, FIG. 2A",reversible block
same,IC50,"hP2Y12 [1]; oocytes expressing rat or human P2Y12 (FIG. 2B: hP2Y12), ADP 500 nM, read-out: IC50, block of ADP-induced K+ currents",1400 nM
same,effect on repression of cAMP levels by 1 μM ADP,"hP2Y12 [3]; antagonist 50 μM, 10 μM forskolin, FIG. 3B",reversed
same,effect on forskolin-stimulated cAMP levels in the absence of agonist,hP2Y12 [3]; no agonist,Neither of these antagonists had effects
same,competition of 1 nM [3H]2MeSADP binding to membranes from transfected cells,hP2Y12 [2]; 50 μM,essentially to the level of untransfected cells
CSc1nc(N)c2ncn([C@@H]3O[C@H](COP(=O)(O)OP(=O)(O)O)[C@@H](O)[C@H]3O)c2n1 [2MeSADP],EC50,P2Y12 receptor [4],0.9 nM
same,potency compared to ADP,P2Y12 receptor [4]; ratio of EC50s,2 orders of magnitude
pertussis toxin,effect of pretreatment on ADP effects on forskolin-stimulated cAMP,"hP2Y12 [3]; 30 ng/ml for 20 hrs, 10 μM ADP, FIG. 3C",abolished
Nc1ncnc2c1ncn2[C@@H]1O[C@H](COP(O)(=S)OP(=O)(O)OP(=O)(O)O)[C@@H](O)[C@H]1O (stereo partly shown) [ATP-αS],agonist effect on potassium currents,P2Y12 receptor [5],weak agonist
"Nc1ncnc2c1ncn2[C@@H]1O[C@H](COP(=O)(O)OP(=O)(O)O)[C@@H](O)[C@H]1O [ADP, adenosine 5′-diphosphate]",EC50,P2Y12 receptor [4],300 nM
same,maximum reduction of forskolin-stimulated cAMP levels,"hP2Y12 [3]; 10 μM ADP, 10 μM forskolin, FIG. 3A",47%
